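A five-concentration, 48-hour dose response in 96-well plates underlies each endpoint, interpolated linearly between surrounding concentrations. GI50 = concentration required for 50% inhibition of growth. TGI: concentration producing complete growth inhibition.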
How the values were obtained:
Experiment in all cases: growth of human tumour cells (NCI), 48 h
[1] = system: UO-31 renal
[2] = system: ACHN renal
[3] = system: NCI-H226 lung
[4] = system: U251 CNS
[5] = system: UACC-62 melanoma
[6] = system: NCI-H460 lung
[7] = system: MOLT-4 leukemia
[8] = system: SW-620 colon
[9] = system: SK-MEL-2 melanoma
[10] = system: RPMI-8226 leukemia

| Structure (SMILES) | GI50 [1] [µM] | TGI [1] [µM] | GI50 [2] [µM] | TGI [2] [µM] | TGI [3] [µM] | GI50 [4] [µM] | TGI [4] [µM] | GI50 [5] [µM] | TGI [5] [µM] | GI50 [6] [µM] | TGI [6] [µM] | GI50 [7] [µM] | TGI [7] [µM] | GI50 [8] [µM] | TGI [8] [µM] | GI50 [9] [µM] | TGI [9] [µM] | GI50 [10] [µM] | TGI [10] [µM] | GI50 [3] [µM] |
| --- | --- | --- | --- | --- | --- | --- | --- | --- | --- | --- | --- | --- | --- | --- | --- | --- | --- | --- | --- | --- |
| CCC1=C[C@@H]2CN(C1)Cc1c([nH]c3ccccc13)[C@@](C(=O)OC)(c1cc3c(cc1OC)N(C=O)[C@H]1[C@@](O)(C(=O)OC)[C@H](OC(C)=O)[C@]4(CC)[C@@H]5C[C@@H]5CN5CC[C@]31[C@@H]54)C2 | 0.173 | > 6.25 | 0.0315 | > 6.25 | > 6.25 | 0.000676 | > 6.25 | < 0.000625 | > 6.25 | 0.00135 | > 6.25 | 0.000789 | > 6.25 | 0.000656 | > 6.25 | < 0.000625 | > 6.25 | < 0.000625 | > 6.25 |  |
| O=C(CNC(=O)OCc1ccccc1)Oc1ccccc1 |  | > 100 |  | > 100 | > 100 |  | > 100 |  | > 100 |  | > 100 |  | > 100 |  | > 100 |  | > 100 |  | > 100 |  |
| CCN1C(=O)N(CC)C2C1NN=c1s/c(=C3\C(=O)N(CC(C)C)c4ccccc43)c(=O)n12 (centres undefined) | 0.869 | > 100 | 0.723 | > 45 | > 100 | 0.548 | 27.4 | 0.603 | 65.5 | 0.471 | > 100 | 0.974 | > 100 | 0.444 | > 100 | 2.98 | 27.8 | 1.42 | > 100 | 2.39 |
| c1ccc2[nH]c(SSc3nc4ncncc4[nH]3)nc2c1 | 0.559 | > 30.9 | 4.14 | > 100 | > 100 | 8.63 | > 100 | 0.729 | > 100 | 4.48 | > 100 | 0.486 | > 100 | 3.24 | > 100 | 2.72 | > 100 | 0.709 | > 100 | 9.52 |
| Nc1ccc(C(=O)c2ccc(N)c(Br)c2)cc1Br | 0.734 | 34 | 1.47 | > 69.9 | > 61.5 | 0.419 | 18.3 | 0.645 | > 62.1 | 0.346 | 5.76 | 0.654 | 59.4 | 0.379 | > 100 | 0.435 | 3.99 | 0.346 | 3.73 | 4.27 |
| Cc1cccc(C)c1NC(=O)/C(Cl)=C(/Cl)C(=O)O |  | 21.7 |  | 29.4 | 27.4 |  | 47.5 |  | 20.6 |  | > 69.9 |  | 27.5 |  | 14.9 |  | 31.5 |  | 37.1 |  |
| CC1(CO)OC1COCc1ccccc1 (centres undefined) |  | > 100 |  | > 100 | > 100 |  | > 100 |  | > 100 |  | > 100 |  | > 100 |  | > 100 |  | > 100 |  | > 100 |  |
| COc1ccc2c([nH]c3cc(O)c(C)cc32)c1C=O |  | > 25 |  | > 25 | > 25 |  | > 25 |  | > 25 |  | > 25 |  | > 25 |  | > 25 |  | > 25 |  | > 25 |  |
| Cc1ncc([N+](=O)[O-])n1CCNS(=O)(=O)CCCn1ccnc1[N+](=O)[O-] |  | > 100 |  | > 100 | > 100 |  | > 100 |  | > 100 |  | > 100 |  | > 100 |  | > 100 |  | > 100 |  | > 100 |  |
| O=[N+]([O-])c1ccc(-c2nc(N(CCO)CCO)c3ccccc3n2)o1 | 0.213 | 0.714 | 0.159 | 0.631 | 1.05 | 0.229 | 1.34 | 0.196 | 0.477 | 0.0537 | 0.38 | 0.508 | > 38.9 | 0.265 | 2.55 | 0.158 | 0.361 | 0.567 | > 21.3 | 0.216 |
| C[C@@H]1O[C@@H](O[C@@H]2[C@@H](O)[C@H](OCCc3ccc(O)c(O)c3)O[C@H](COC(=O)/C=C/c3ccc(O)c(O)c3)[C@H]2O)[C@H](O)[C@H](O)[C@H]1O | > 100 | > 100 | > 100 | > 100 | > 100 | 49.2 | > 100 | > 100 | > 100 | > 100 | > 100 | > 100 | > 100 | 18.7 | 37.9 | > 100 | > 100 | 13.7 | 43.4 | > 100 |
| CC(C)=CC(=O)Oc1ccc([N+](=O)[O-])cc1 |  | > 100 |  | > 100 | > 100 |  | > 100 |  | > 100 |  | > 100 |  | > 100 |  | > 100 |  | > 100 |  | > 100 |  |
| O=C1CCCCCCCCCCC(=O)C2CCOCCOCCOCCC1Cc1cccc(n1)C2 |  | > 100 |  | > 100 | > 100 |  | > 100 |  | > 100 |  | > 100 |  | > 100 |  | > 100 |  | > 100 |  | > 100 |  |
| C=C1CC[C@@]2(C#N)[C@H]3[C@H](CC[C@@H]2C)[C@@H](C)C[C@@H](CC(C)(C)C#N)[C@H]13 | 0.363 | 19.3 | 1.03 | 14.7 | 24.1 | 2.86 | 29.8 | 2.45 | 16.7 | 0.877 | 12.8 | 3.02 | 72.1 | 4.65 | 22.1 | 6.67 | 40.2 | 0.589 | 26.3 | 2.43 |
| CC(=O)NC1=C(Nc2ccc(C)cc2)C(=O)c2ccccc2C1=O |  | > 75 |  | 47.5 | 42.5 |  | > 75 |  | 23 |  | 22.9 |  | 56.5 |  | 27.7 |  | 56.7 |  | 31.6 |  |

From PubChem BioAssay (NCI)
